Reference: patent publication US20050118658A1, “Use of ERRalpha phosphorylation status as a breast cancer biomarker” (priority 2003, published 2005)

Columns and labels:
[1] = tested on: phosphorylated MAPK (p-MAPK); experiment: Immunoblot analysis of phosphorylated versus total MAPK in BT-474 cells; type: cell-based, human; conditions: 48 h, 20 μg/ml trastuzumab, 1 μM gefitinib, 20 μM U0126 or 20 μM LY294002
Protocol: (§1) BT-474 cells were co-transfected in parallel with the ERE(5x)-regulated and TATA dual-luciferase reporter gene sets along with the indicated expression plasmids. […] In panel (B), the cells were incubated for 48 h in estrogen-free medium supplemented with dimethyl sulfoxide as the drug vehicle control, 20 μM U0126 (MEK inhibitor), or 20 μM LY294002 (PI3K inhibitor) as indicated. After incubation for 48 h, the cells were harvested for dual-luciferase assays. Data were analyzed as described in the legend to FIG. 2. (C) Immunoblot analysis of protein extracts (20 μg per sample) prepared from BT-474 cells treated as in panels A and B above for luciferase activity. The membrane was probed with antibodies that react specifically with ERRα. Reactive proteins were visualized by enhanced chemiluminescence and autoradiography. (D) Immunoblot analysis as in panel C above, only the membrane was probed with antibodies that react specifically with phosphorylated Akt (p-Akt), total Akt, phosphorylated MAPK (p-MAPK) or total MAPK.
(§2) Proteins were extracted in Cell Lysis Buffer (Cell Signaling Technology, Beverly, Mass.) supplemented with Protease Inhibitor Cocktail Set III and Phosphatase Inhibitor Cocktail Set II (Calbiochem). Protein amounts were quantified with Coomassie Protein Assay Reagent (Pierce Biotechnology) with BSA as the standard. […] In FIG. 5D, the membrane was probed sequentially with p44/42 MAPK polyclonal antibody, phospho-specific p44/42 MAPK (Thr202/Tyr204) monoclonal antibody E10, Akt polyclonal antibody, and phospho-specific Akt (Ser473) polyclonal antibody (Cell Signaling Technology). Reacting material was detected using horseradish peroxidase-conjugated secondary antibodies (Jackson ImmunoResearch Laboratories, West Grove, Pa.) together with enhanced chemiluminescence (Amersham Pharmacia) and autoradiography.

BT-474 cells = conditions: literature statement; cited from earlier work
MCF-7 cells [2] = conditions: literature statement; cited from earlier work
[3] = tested on: phosphorylated Akt (p-Akt); experiment: Immunoblot analysis of phosphorylated versus total Akt in BT-474 cells; type: cell-based, human; conditions: 48 h, 20 μg/ml trastuzumab, 1 μM gefitinib, 20 μM U0126 or 20 μM LY294002
Protocol: as §1, §2

MCF-7 cells [4] = experiment: 7 day growth assay, DNA content per well, MCF-7 cells; conditions: 1I M gefitinib, 7 days
Protocol: Using 12-well plates, MCF-7 and BT-474 cells were seeded at 15,000 and 30,000 cells per well. Cells were cultured for 7 days in the presence of the indicated test agents with media changes at day 0, day 2 and day 5. Following the 7 day treatment course, cells were assayed for DNA content per well. The results shown represent the mean ± SEM of three replicate wells.
MCF-7 and BT-474 cells were seeded in 12-well plates at 15,000 and 30,000 cells per well, respectively. Cells were allowed to grow in the presence of the test agents for a total of 7 days, after which, they were harvested for measurement of DNA content per well using a fluorescent DNA quantification kit (Bio-Rad, Hercules, Calif.). Day 0 was considered to be 24 h after the cells were seeded, when the medium was initially replaced with fresh medium containing the test agents. The cell culture medium was again exchanged with fresh medium containing the appropriate test agents on days 2 and 5. […] The effects on cellular proliferation of the test agents are shown as the percentage of DNA amount per well relative to the control treated cells.

ERRα = experiment: Immunoblot analysis of ERRα expression in ERRα-transfected BT-474 cells; type: cell-based, human; conditions: BT-474 cells transfected with ERRα, 48 h; 20 μg/ml trastuzumab, 1 μM gefitinib, 20 μM U0126 or 20 μM LY294002
Protocol: as §1, §2

For `COc1cc2ncnc(Nc3ccc(F)c(Cl)c3)c2cc1OCCCN1CCOCC1` [gefitinib], the “phosphorylation of MAPK / MEK/MAPK pathway activation (immunoblot)” value [1] is given as “inhibited activation of the MEK/MAPK and PI3K/Akt signaling pathways”, the “effect on growth of BT-474 cells (known, ref. 26)” value (BT-474 cells) is given as “significantly inhibit the growth” and the “effect on growth of MCF-7 cells (known, ref. 35)” value (MCF-7 cells [2]) is given as “affect only minimally the growth”. For the same compound, the “phosphorylation of Akt / PI3K/Akt pathway activation (immunoblot)” value [3] was “inhibited activation of the MEK/MAPK and PI3K/Akt signaling pathways”, the “effect on growth of MCF-7 cells” value (MCF-7 cells [4]) was “did not significantly affect the growth” and the “ERRα expression (immunoblot)” value (ERRα) was “expression was maintained”.
